Assay [1] concerns the target T1, Arsenite methyltransferase (Homo sapiens, UniProt Q9HBK9).
T1 sequence (Q9HBK9 whole entry): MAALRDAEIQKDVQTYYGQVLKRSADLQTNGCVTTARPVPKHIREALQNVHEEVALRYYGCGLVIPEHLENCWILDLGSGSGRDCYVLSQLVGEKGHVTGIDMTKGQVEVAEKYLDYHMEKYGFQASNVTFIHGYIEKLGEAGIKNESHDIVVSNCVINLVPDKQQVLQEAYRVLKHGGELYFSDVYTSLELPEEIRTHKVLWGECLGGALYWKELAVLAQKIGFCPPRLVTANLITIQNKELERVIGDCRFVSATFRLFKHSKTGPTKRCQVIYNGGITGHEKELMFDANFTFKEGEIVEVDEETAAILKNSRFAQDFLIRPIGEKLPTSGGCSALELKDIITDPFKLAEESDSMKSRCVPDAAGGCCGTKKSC
The assay is described as follows: Inhibition of human AS3MT using NaAsO2 as substrate preincubated for 30 minutes followed by substrate addition measured after 90 mins in presence of SAM.

Assay [2] deals with T2, Histone-lysine N-methyltransferase NSD2 (Homo sapiens, UniProt O96028).
T2 sequence (O96028 whole entry): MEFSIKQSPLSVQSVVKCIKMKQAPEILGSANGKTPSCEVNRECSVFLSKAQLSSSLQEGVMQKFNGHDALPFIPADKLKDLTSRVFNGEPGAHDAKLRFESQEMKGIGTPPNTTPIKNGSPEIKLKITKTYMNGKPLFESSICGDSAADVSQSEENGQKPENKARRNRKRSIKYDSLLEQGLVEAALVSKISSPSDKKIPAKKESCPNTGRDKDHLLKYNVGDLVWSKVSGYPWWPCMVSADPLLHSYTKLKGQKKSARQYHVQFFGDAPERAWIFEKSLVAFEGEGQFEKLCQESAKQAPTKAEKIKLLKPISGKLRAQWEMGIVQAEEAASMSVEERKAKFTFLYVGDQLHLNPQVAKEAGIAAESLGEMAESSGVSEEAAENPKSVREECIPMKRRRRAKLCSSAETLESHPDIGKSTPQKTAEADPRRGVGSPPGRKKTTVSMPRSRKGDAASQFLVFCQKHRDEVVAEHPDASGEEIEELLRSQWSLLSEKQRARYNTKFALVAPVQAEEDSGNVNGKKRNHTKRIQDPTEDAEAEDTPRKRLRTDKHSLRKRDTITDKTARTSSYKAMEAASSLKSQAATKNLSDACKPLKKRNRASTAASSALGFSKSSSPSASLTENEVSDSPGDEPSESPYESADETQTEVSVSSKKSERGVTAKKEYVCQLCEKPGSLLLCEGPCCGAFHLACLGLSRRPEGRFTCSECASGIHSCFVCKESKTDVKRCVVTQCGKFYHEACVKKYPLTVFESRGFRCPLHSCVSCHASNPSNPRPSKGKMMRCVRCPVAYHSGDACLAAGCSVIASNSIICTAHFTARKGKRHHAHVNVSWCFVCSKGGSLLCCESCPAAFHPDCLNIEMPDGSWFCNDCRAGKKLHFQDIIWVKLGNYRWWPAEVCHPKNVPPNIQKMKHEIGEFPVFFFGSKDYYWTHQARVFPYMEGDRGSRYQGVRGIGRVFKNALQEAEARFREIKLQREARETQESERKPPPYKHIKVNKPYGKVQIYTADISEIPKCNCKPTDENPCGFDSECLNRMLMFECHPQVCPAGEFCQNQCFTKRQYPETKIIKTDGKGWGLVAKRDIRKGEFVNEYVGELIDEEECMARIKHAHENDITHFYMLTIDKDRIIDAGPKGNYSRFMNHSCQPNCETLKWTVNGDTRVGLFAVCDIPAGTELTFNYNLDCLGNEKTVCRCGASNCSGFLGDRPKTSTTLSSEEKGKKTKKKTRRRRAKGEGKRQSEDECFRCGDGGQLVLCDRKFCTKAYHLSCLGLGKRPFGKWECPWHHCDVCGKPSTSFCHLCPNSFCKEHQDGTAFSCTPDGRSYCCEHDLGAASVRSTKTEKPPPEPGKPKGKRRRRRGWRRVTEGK
The assay is described as follows: Inhibition of full-length NSD2 (unknown origin) using HeLa oligonucleosome as substrate preincubated for 15 mins followed by substrate addition measured after 45 mins in presence of SAM by MTaseGlo assay.

Assay [3] deals with Histone-lysine N-methyltransferase, H3 lysine-79 specific (Homo sapiens, UniProt Q8TEK3). The assay is described as follows: Inhibition of full-length DOT1L (unknown origin) using HeLa oligonucleosome as substrate preincubated for 15 mins followed by substrate addition measured after 45 mins in presence of SAM by MTaseGlo assay.

pIC50: −log10 of the molar value.

Histone-lysine N-methyltransferase, H3 lysine-79 specific, sequence (Q8TEK3 whole entry): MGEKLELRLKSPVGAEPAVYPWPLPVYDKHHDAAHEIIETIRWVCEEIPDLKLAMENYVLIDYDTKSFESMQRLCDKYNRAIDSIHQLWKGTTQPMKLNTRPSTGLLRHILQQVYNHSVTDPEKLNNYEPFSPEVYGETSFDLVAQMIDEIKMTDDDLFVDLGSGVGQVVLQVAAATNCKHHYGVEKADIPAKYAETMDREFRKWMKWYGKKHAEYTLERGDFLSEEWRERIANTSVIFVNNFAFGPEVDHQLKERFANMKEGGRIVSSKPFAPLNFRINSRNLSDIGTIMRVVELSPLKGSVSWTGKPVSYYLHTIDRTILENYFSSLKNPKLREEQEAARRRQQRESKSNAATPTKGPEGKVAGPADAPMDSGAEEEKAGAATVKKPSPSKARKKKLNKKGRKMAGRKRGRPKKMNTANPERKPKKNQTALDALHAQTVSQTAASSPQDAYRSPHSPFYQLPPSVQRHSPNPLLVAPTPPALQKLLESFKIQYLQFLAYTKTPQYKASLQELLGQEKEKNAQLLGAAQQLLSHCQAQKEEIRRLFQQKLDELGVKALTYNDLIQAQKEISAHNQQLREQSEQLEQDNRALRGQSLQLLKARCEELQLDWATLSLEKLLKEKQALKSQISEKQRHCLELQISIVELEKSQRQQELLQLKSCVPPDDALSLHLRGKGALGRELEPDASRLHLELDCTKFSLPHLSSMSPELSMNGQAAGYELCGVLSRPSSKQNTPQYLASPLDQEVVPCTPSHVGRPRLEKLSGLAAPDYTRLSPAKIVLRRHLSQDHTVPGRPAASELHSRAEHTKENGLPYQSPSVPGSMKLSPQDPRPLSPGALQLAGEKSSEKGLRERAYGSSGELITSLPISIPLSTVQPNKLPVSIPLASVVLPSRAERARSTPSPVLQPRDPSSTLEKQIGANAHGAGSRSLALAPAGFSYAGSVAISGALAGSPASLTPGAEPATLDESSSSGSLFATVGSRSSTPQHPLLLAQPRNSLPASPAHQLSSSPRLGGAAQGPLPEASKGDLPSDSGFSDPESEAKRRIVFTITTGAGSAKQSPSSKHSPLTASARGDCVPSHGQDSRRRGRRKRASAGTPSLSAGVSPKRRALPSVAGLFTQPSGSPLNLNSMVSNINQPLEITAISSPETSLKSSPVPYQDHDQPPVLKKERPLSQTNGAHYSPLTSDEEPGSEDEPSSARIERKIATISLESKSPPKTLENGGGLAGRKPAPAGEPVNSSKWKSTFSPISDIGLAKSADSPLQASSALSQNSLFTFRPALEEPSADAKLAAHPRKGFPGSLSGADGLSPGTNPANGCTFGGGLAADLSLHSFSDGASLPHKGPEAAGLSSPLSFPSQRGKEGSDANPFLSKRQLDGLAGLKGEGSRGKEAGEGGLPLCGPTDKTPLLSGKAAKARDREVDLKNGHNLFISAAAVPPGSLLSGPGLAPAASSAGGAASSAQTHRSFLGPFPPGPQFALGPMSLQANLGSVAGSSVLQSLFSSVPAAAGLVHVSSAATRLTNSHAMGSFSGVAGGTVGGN

The term pIC50 denotes the IC50 on a negative log10 scale, so that one unit is a factor of ten. On to `Cn1c(N)c(C#N)c2cc(OCc3cccc(NC(=O)C(N)CO)c3)ccc21` (centres undefined), for which, in assay [1], the pIC50 was 5.54.

In the case of `N#Cc1c(N)[nH]c2ccc(Oc3ccc(NC(=O)[C@H](N)CO)cc3)cc12`, the values for the negative logarithm of the IC50 (pIC50) in assay [2], in assay [3] and in assay [1] were 5.04, < 4.00 and 5.30, respectively.

Take `N#Cc1c(N)[nH]c2ccc(OCc3ccccc3)cc12`: the figures for the pIC50 in assay [2], in assay [3] and in assay [1] were 4.31, < 4.00 and 5.44, respectively.

With `CCn1cc(C#N)c2cc(Oc3ccc(NC(=O)CN)cc3)ccc21`, in assay [1], the pIC50 was < 4.00.

In the case of `N#Cc1c(N)n(CC(N)=O)c2ccc(Oc3ccc(NC(=O)CN)cc3)cc12`, the negative-log IC50 (pIC50) in assay [1] was 4.70.

As to `CCn1c(N)c(C#N)c2cc(Oc3ccc(NC(=O)CN)cc3)ccc21`, the pIC50 in assay [2] was 4.92; in assay [3] it was 4.00; in assay [1], 5.74.

For the molecule `N#Cc1c(N)n(CC2CC2)c2ccc(Oc3ccc(NC(=O)CN)cc3)cc12`, the pIC50 was 5.24 in assay [2], 4.02 in assay [3] and 5.82 in assay [1].

For `Cn1c(N)c(C#N)c2cc(OCc3cccc(N)c3)ccc21`, the pIC50 is < 4.00 in assay [2], < 4.00 in assay [3] and 5.85 in assay [1].

Regarding `CN(C)C(=O)Cn1c(N)c(C#N)c2cc(Oc3ccc(NC(=O)CN)cc3)ccc21`, the pIC50 in assay [1] is 5.08.

In the case of `N#Cc1c(N)[nH]c2ccc(Oc3ccc(NC(=O)[C@@H](N)CO)cc3)cc12`, the negative logarithm of the IC50 (pIC50) in assay [2] is 4.96; in assay [3], < 4.00; in assay [1], 5.52.

On to `CC(C)(C)C(=O)Nc1[nH]c2ccc(OCc3ccccc3)cc2c1C#N`, for which the negative logarithm of the IC50 (pIC50) in assay [1] was < 4.00.

Turning to `Cn1c(N)c(C#N)c2cc(OCc3ccccc3)ccc21`, the pIC50 is < 4.00 in assay [2], < 4.00 in assay [3] and 4.87 in assay [1].

In the case of `Cn1c(N)c(C#N)c2cc(Oc3ccc(NC(=O)CN)cc3)ccc21`, the pIC50 was 4.33 in assay [2], < 4.00 in assay [3] and 5.48 in assay [1].

The record behind these values is ChEMBL document CHEMBL4265895, “Novel inhibitors of As(III) S-adenosylmethionine methyltransferase (AS3MT) identified by virtual screening” (Bioorg Med Chem Lett, 2018).
